Assay results reported in PMC11546339, “Conformational Plasticity Enhances the Brain Penetration of a Metabolically Stable, Dual-Functional Opioid-Peptide CycloAnt” (International Journal of Molecular Sciences, 2024).
Like-named read-outs stand apart in the source and are kept apart here. Where a SMILES comes first, the peptide text is derived from it. Bridges are numbered along the chain shown (N, C = ends). [ ]: non-standard residue; d: D form. 2Abz = Nc1ccccc1C(=O)O; Dap = NC[C@H](N)C(=O)O

What was measured:
[1] = target: T1, rat MOR (Rattus norvegicus, UniProt P33535); assay: Opioid receptor radioligand binding assay ([3H]diprenorphine), MOR; conditions: CHO cell membranes, read-out: binding affinity (Ki) at MOR
T1 construct: expressed in transfected cells
Description: CycloAnt is a lariat peptide that acts in vivo as a bifunctional MOR agonist and DOR antagonist, which was confirmed in our previous study using opioid receptor individually knock-out (OP KO) mice. In the current study, the binding affinities of CycloAnt to the three opioid receptors are determined using cell-based radioligand opioid receptor binding assays. […] At the KOR, CycloAnt at 1 μM inhibits 6% and at 10 μM inhibits 26% of [^3H]diprenorphine binding.
Opioid receptor radioligand binding assay. Membranes of CHO cells stably expressing the rat MOR, mouse DOR, or human KOR were used in the experiments. [^3H]diprenorphine (PerkinElmer, Waltham, MA, at the time of experiment calculated to have specific activity 35 Ci/mmol) was used as the radioligand for the MOR, DOR, and KOR. Competition inhibition of [^3H]diprenorphine (0.3–0.4 nM) binding to the MOR or DOR was conducted in 50 mM Tris-HCl buffer (pH 7.4) with an adequate number of cell membranes for each receptor and […] of CycloAnt. […] Binding reactions were terminated by rapid filtration under vacuum over GF/B filters presoaked in 0.1% polyethyleneimine, and the bound radioactivity was counted by liquid scintillation counting. […] Binding data were analyzed using GraphPad Prism software (version 10.2.3) and IC50 values (the concentration necessary to inhibit 50 percent of radioligand binding) and Ki values were calculated. […]

[2] = Pharmacokinetic study in mice (plasma and brain); type: in vivo; conditions: male, C57BL/6, mouse, ip, 3 mg/kg i.p.
Description: To evaluate the amount of CycloAnt in mouse brain, we performed a pharmacokinetic experiment in mice. Mice were given CycloAnt at 3 mg/kg i.p.; blood was collected at 0, 15, 30, and 60 min post-injection. Immediately after the blood was collected, the mouse was intracardially perfused through the left ventricle with 20 mL PBS. The whole brain was isolated and homogenized. The blood and brain samples were processed by protein precipitation and centrifugation. The supernatants of the blood and brain samples were collected and analyzed by LC-MS/MS.
Pharmacokinetic study. Standard curve. Following euthanasia, mouse blood was collected in a heparin anticoagulation tube and the whole brain was isolated. For determination of the standard curve in mouse blood, 300 μL of blood was spiked with 0, 10, 100, and 1000 ng of CycloAnt, respectively, followed by adding 600 μL of ice-cold acetonitrile containing the internal standard (IS, Tyr-[D-Lys-Phe-Tyr-Gly]) at 200 ng/mL. The blood samples were thoroughly mixed and centrifuged at 10,000 rpm at 4 °C for 10 min. An aliquot of 600 μL of supernatant from each sample was collected and dried under vacuum, followed by reconstitution of the dried blood sample in 100 μL 20% acetonitrile. The reconstituted sample was centrifuged at 13,000 rpm, 4 °C for 5 min to remove the lipid content. The supernatant was collected for LC-MS/MS analysis. For mouse brain, the brain was homogenized with 250 μL of PBS at 0 °C, followed by adding 1 mL of ice-cold acetonitrile containing the IS. The brain sample was then spiked with 0, 10, 100, and 1000 ng of CycloAnt, respectively, and thoroughly mixed and centrifuged at 10,000 rpm, 4 °C for 10 min. An aliquot of 1000 μL of supernatant was collected and dried under vacuum, followed by adding 100 μL 20% acetonitrile to reconstitute the dried brain sample. The reconstituted sample was mixed and centrifugating at 13,000 rpm, 4 °C for 5 min to remove the lipid content. The supernatant was collected and analyzed by LC-MS/MS.
The peak areas of CycloAnt and IS were recorded; the relative measured concentration of CycloAnt was calculated using the ratio of CycloAnt peak area vs. IS peak area. A standard concentration curve (Figure S8) was then generated for CycloAnt in the matrix of blood and brain, respectively.
Pharmacokinetics. Eight-week-old male C57BL/6 mice (Jackson Laboratories, Bar Harbor, ME, USA) were used for pharmacokinetic studies. CycloAnt was given to mice (n = 2) i.p. at a dose of 3 mg/kg. At 15, 30, and 60 min post-administration, mouse blood was collected in a heparin anticoagulation tube. After blood collection, the mouse was intracardially perfused through the left ventricle with 20 mL PBS, followed by isolation of the whole brain. To process the blood sample, 300 μL blood was mixed with 600 μL of ice-cold acetonitrile containing the IS at 200 ng/mL, followed by centrifugation at 10,000 rpm, 4 °C for 10 min. To process the brain sample, 250 μL of ice-cold PBS was added to the isolated brain and homogenized at 0 °C, followed by mixing with 1 mL of ice-cold acetonitrile containing the IS. The brain sample was then centrifuged at 10,000 rpm, 4 °C for 10 min. The supernatants were collected from the blood sample (600 μL) and the brain sample (1 mL), respectively, and dried under vacuum. The blood and brain samples were reconstituted in 100 μL of 20% acetonitrile. The samples were then centrifuged at 13,000 rpm, 4 °C for 5 min to remove the lipid content. The supernatants were collected from the blood and brain samples and analyzed by LC-MS/MS.

T1 sequence (P33535 whole entry): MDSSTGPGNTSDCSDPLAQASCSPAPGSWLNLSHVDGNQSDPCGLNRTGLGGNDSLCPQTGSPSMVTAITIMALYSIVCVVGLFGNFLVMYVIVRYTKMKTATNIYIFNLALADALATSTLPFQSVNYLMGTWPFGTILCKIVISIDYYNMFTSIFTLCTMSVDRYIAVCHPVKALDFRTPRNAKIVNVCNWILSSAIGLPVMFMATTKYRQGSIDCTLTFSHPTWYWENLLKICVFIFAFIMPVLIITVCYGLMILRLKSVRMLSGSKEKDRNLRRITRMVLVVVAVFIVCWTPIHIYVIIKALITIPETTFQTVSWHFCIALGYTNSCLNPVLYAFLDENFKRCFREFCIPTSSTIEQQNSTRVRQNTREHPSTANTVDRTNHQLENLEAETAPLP

Compound: C[C@@H](O)[C@@H]1NC(=O)[C@H](CNC(=O)c2ccccc2N)NC(=O)[C@H](NC(=O)[C@@H](N)Cc2ccc(O)cc2)CCCCNC(=O)CNC1=O [CycloAnt] (H-Y[dK][Dap](2Abz)TG; lactam 2-C)
- Ki [1]: 2.25 ± 0.44 nM
- Tmax ([2]; brain, read-out: time of maximum concentration in brain (converted)): 15 min
- Cmax ([2]; assuming density of brain tissue 1 g/mL, read-out: maximum concentration in brain (Cmax,br)): 70 nM
- Cmax ([2]; perfused brain, read-out: maximum concentration in brain (Cmax,br)): 46 ng/g
- AUC ([2]; plasma, 0-60 min, read-out: AUCbld (plasma) (converted)): 173 ng·h/mL
- Cmax ([2]; plasma, read-out: maximum concentration in mouse plasma (Cmax,pl)): 411 ng/mL
- Tmax ([2]; whole blood, read-out: time of maximum concentration in blood (converted)): 15 min
